Some test systems named below: HS 578T breast; BT-549 breast; A549 NSCLC; RPMI-8226 leukemia; MDA-MB-435; HOP-62 NSCLC; HL-60(TB) leukemia; SK-MEL-28 melanoma; OVCAR-5 ovarian; EKVX NSCLC.
Common to all, as to experiment: inhibition of tumour cell growth, NCI panel, 48 h

Experimental findings from PubChem BioAssay (NCI) are described below.

Several values for one entry are separate records, joined by “and”; a condition that tells them apart may be missing. Equal values may be shown once.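 Protocol summary: plate cells (96-well), add compound at 5 concentrations, incubate 48 h, interpolate endpoints linearly. The concentration for 50% growth inhibition is given as GI50. TGI is the concentration that stops growth completely.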 Some results are limits rather than exact numbers.

Take `C/C(=C\c1ccc(Cl)cc1)C(C)(C)C(=O)O`: the TGI in the test with HS 578T breast, in the test with BT-549 breast, with A549 NSCLC, in the test with RPMI-8226 leukemia, in the test with MDA-MB-435 and in the test on HOP-62 NSCLC was above 100 µM in each case. The TGI in the test on HL-60(TB) leukemia, in the test with SK-MEL-28 melanoma, in the test on OVCAR-5 ovarian and in the test with EKVX NSCLC was above 100 µM each time.

As for `CC1(C)N=C(N)N=C(N)N1c1cccc(C#N)c1`, the GI50 in the test with HS 578T breast was 71.6 µM; in the test with BT-549 breast it was 27.9 µM; with A549 NSCLC, 0.932 µM; with RPMI-8226 leukemia it was 62.9 µM; with MDA-MB-435 it was 0.594 µM; in the test on HOP-62 NSCLC it was 16.6 µM. For the same molecule, the GI50 was 3.46 µM in the test with HL-60(TB) leukemia, 48.8 µM with SK-MEL-28 melanoma, 2.74 µM with OVCAR-5 ovarian and 1.09 µM in the test on EKVX NSCLC. Also, the TGI in the test with HS 578T breast, with BT-549 breast, in the test on A549 NSCLC, in the test on RPMI-8226 leukemia, with MDA-MB-435 and in the test with HOP-62 NSCLC was above 100 µM in each case. Besides, the TGI with HL-60(TB) leukemia, in the test with SK-MEL-28 melanoma, with OVCAR-5 ovarian and in the test on EKVX NSCLC was above 100 µM throughout.

For the molecule `COc1ccc(-c2ccc3c(NC(=O)C4CC4)n[nH]c3n2)cc1`, the GI50 is 23.6 µM with HS 578T breast; above 14.3 µM in the test with BT-549 breast; above 25 µM in the test with A549 NSCLC; above 25 µM in the test on RPMI-8226 leukemia; above 25 µM in the test on MDA-MB-435; 7.64 µM with HOP-62 NSCLC. The GI50 in the test with HL-60(TB) leukemia, in the test on SK-MEL-28 melanoma, in the test on OVCAR-5 ovarian and in the test on EKVX NSCLC was above 25 µM in each case. For the same molecule, the TGI is above 25 µM in the test on HS 578T breast; above 25 µM in the test with BT-549 breast; above 25 µM in the test on A549 NSCLC; above 25 µM in the test with RPMI-8226 leukemia; above 25 µM in the test with MDA-MB-435; above 22 µM with HOP-62 NSCLC. The TGI in the test on HL-60(TB) leukemia, in the test on SK-MEL-28 melanoma, in the test with OVCAR-5 ovarian and in the test on EKVX NSCLC was above 25 µM throughout.

Turning to `Nc1[nH]c(=O)ncc1F`, the TGI with HS 578T breast, with BT-549 breast, in the test on A549 NSCLC, in the test on RPMI-8226 leukemia, in the test on MDA-MB-435 and in the test with HOP-62 NSCLC was above 100 µM throughout. In addition, the TGI with HL-60(TB) leukemia, with SK-MEL-28 melanoma, in the test on OVCAR-5 ovarian and with EKVX NSCLC was above 100 µM each time.

`C[C@]12O[C@H](C[C@]1(O)CO)n1c3ccccc3c3c4c(c5c6ccccc6n2c5c31)CNC4=O`: the GI50 in the test on HS 578T breast was 0.178 µM and 0.239 µM; in the test with BT-549 breast, 0.203 µM and 0.288 µM; in the test with A549 NSCLC it was 0.176 µM and 0.191 µM; with RPMI-8226 leukemia it was 0.134 µM and 0.215 µM; with MDA-MB-435, 0.044 µM and 0.0371 µM; in the test on HOP-62 NSCLC it was 0.0499 µM and 0.0664 µM. In addition, the GI50 in the test on HL-60(TB) leukemia was 0.233 µM and 0.0928 µM; in the test on SK-MEL-28 melanoma it was 0.0851 µM and 0.0854 µM; with OVCAR-5 ovarian, 0.114 µM; in the test with EKVX NSCLC, 1.56 µM. The TGI was 3.01 µM and 3.61 µM in the test with HS 578T breast; 1.45 µM and 1.81 µM with BT-549 breast; > 6.09 µM and 3.5 µM in the test on A549 NSCLC; 1.6 µM and 1.75 µM in the test with RPMI-8226 leukemia; 3.97 µM and 2.01 µM in the test with MDA-MB-435; 1.25 µM and 1.07 µM in the test with HOP-62 NSCLC. The TGI with HL-60(TB) leukemia was > 2.31 µM and 1.23 µM; in the test with SK-MEL-28 melanoma it was 1.12 µM and 1.36 µM; in the test with OVCAR-5 ovarian, > 10 µM and 4.79 µM; in the test on EKVX NSCLC, above 9.15 µM.

With `COc1ccc(OC)c(-c2nc3sccn3c2/C=C2/C(=O)Nc3ccc(Cl)cc32)c1`, the GI50 with HS 578T breast is 15.6 µM; in the test with BT-549 breast, 24.2 µM; in the test on A549 NSCLC it was 38.9 µM; in the test on RPMI-8226 leukemia, 26.9 µM; in the test on MDA-MB-435, 17.2 µM; in the test on HOP-62 NSCLC, 25 µM. Further, the GI50 with HL-60(TB) leukemia is 31.2 µM; with SK-MEL-28 melanoma, 20.6 µM; with OVCAR-5 ovarian, 30 µM; in the test with EKVX NSCLC, 36.1 µM. For the same molecule, the TGI in the test on HS 578T breast is 53.5 µM; in the test on BT-549 breast, 74.3 µM; in the test on A549 NSCLC, above 100 µM; in the test with RPMI-8226 leukemia, 94.8 µM; in the test on MDA-MB-435 it was 44.9 µM; with HOP-62 NSCLC, 60.5 µM. Also, the TGI in the test with HL-60(TB) leukemia is 76 µM; in the test on SK-MEL-28 melanoma, 39.8 µM; in the test on OVCAR-5 ovarian, above 100 µM; in the test on EKVX NSCLC it was above 100 µM.

As to `O=C(c1ccccc1Nc1ccnc(C(F)(F)F)c1)N1CCN(c2cccc(Cl)c2)CC1`, the GI50 with HS 578T breast was 17.3 µM; with BT-549 breast it was 15.9 µM; in the test with A549 NSCLC it was 21.2 µM; in the test on RPMI-8226 leukemia, 6.3 µM; with MDA-MB-435, 16.1 µM; in the test on HOP-62 NSCLC, 28.2 µM. Also, the GI50 in the test on HL-60(TB) leukemia was 16.2 µM; in the test with SK-MEL-28 melanoma it was 26.5 µM; in the test on OVCAR-5 ovarian, 27.9 µM; with EKVX NSCLC, 15.4 µM. The TGI in the test on HS 578T breast is 89.2 µM; in the test with BT-549 breast, 37.3 µM; in the test on A549 NSCLC it was above 100 µM; in the test with RPMI-8226 leukemia, 48 µM; in the test with MDA-MB-435, 66.7 µM; in the test on HOP-62 NSCLC, above 100 µM. For the same molecule, the TGI in the test with HL-60(TB) leukemia was 59 µM; in the test on SK-MEL-28 melanoma it was above 100 µM; with OVCAR-5 ovarian it was above 86.4 µM; in the test with EKVX NSCLC it was above 87.5 µM.

In the case of `O=[N+]([O-])c1cccc([N+](=O)[O-])c1S(=O)(=O)c1ccccc1`, the TGI amounted to 43.9 µM in the test on HS 578T breast; 13.6 µM with BT-549 breast; 41.8 µM with A549 NSCLC; 3.68 µM in the test with RPMI-8226 leukemia; 14.6 µM with MDA-MB-435; 35.1 µM with HOP-62 NSCLC. Further, the TGI in the test on HL-60(TB) leukemia stood at 7.48 µM; in the test with SK-MEL-28 melanoma, 15.2 µM; in the test with OVCAR-5 ovarian, 9.18 µM; with EKVX NSCLC, 42.8 µM.

Turning to `C=C(CN1CCN(c2ccccc2OC)CC1)c1ccc(C(=O)Nc2ccccc2N)cc1`, the GI50 in the test on HS 578T breast is 3.58 µM; with BT-549 breast, 7.12 µM; in the test on A549 NSCLC it was 11.2 µM; in the test on RPMI-8226 leukemia, 5.11 µM; in the test with MDA-MB-435, 1.27 µM; with HOP-62 NSCLC it was 3.27 µM. Further, the GI50 with HL-60(TB) leukemia is 1.81 µM; with SK-MEL-28 melanoma it was 2.14 µM; in the test with OVCAR-5 ovarian it was 7.56 µM; with EKVX NSCLC, 10.6 µM. Also, the TGI is above 50 µM in the test with HS 578T breast; 26.9 µM in the test on BT-549 breast; 35.5 µM with A549 NSCLC; above 50 µM in the test with RPMI-8226 leukemia; 3.38 µM in the test with MDA-MB-435; above 50 µM with HOP-62 NSCLC. For the same molecule, the TGI with HL-60(TB) leukemia is above 50 µM; in the test on SK-MEL-28 melanoma, above 50 µM; in the test on OVCAR-5 ovarian, 22.8 µM; in the test on EKVX NSCLC, above 50 µM.
